Measurements as given in ChEMBL document CHEMBL4420071, “Method for treating skin with retinoids and retinoid boosters” (2013).

Experiments:
Homo sapiens [1] = species on record: Homo sapiens; experiment: Inhibition of transglutaminase in human keratinocytes assessed as mean transglutaminase activity level at 6.26 10^-8M in presence of 10 uM retinal relative to retinal alone; type: cell-based; parameters: scale not given: the % may be the effect or the level left
Homo sapiens [2] = species on record: Homo sapiens; experiment: Inhibition of transglutaminase in human keratinocytes assessed as mean transglutaminase activity level at 3.8 10^-4M in presence of 10 uM retinal relative to retinal alone; type: cell-based; parameters: scale not given: the % may be the effect or the level left
Homo sapiens [3] = species on record: Homo sapiens; experiment: Inhibition of transglutaminase in human keratinocytes assessed as mean transglutaminase activity level at 1.0 10^-9M in presence of 10 uM retinal relative to retinal alone; type: cell-based; parameters: scale not given: the % may be the effect or the level left
Homo sapiens [4] = species on record: Homo sapiens; experiment: Inhibition of transglutaminase in human keratinocytes assessed as mean transglutaminase activity level at 1.41 10^-6M in presence of 10 uM retinal relative to retinal alone; type: cell-based; parameters: scale not given: the % may be the effect or the level left
Homo sapiens [5] = species on record: Homo sapiens; experiment: Inhibition of transglutaminase in human keratinocytes assessed as mean transglutaminase activity level at 1.25 10^-8M in presence of 10 uM retinal relative to retinal alone; type: cell-based; parameters: scale not given: the % may be the effect or the level left
Homo sapiens [6] = species on record: Homo sapiens; experiment: Inhibition of transglutaminase in human keratinocytes assessed as mean transglutaminase activity level at 3.3123 10^-4M in presence of 10 uM retinal relative to retinal alone; type: cell-based; parameters: scale not given: the % may be the effect or the level left
Homo sapiens [7] = species on record: Homo sapiens; experiment: Inhibition of transglutaminase in human keratinocytes assessed as mean transglutaminase activity level at 6.9 10^-9M in presence of 10 uM retinal relative to retinal alone; type: cell-based; parameters: scale not given: the % may be the effect or the level left
Homo sapiens [8] = species on record: Homo sapiens; experiment: Inhibition of transglutaminase in human keratinocytes assessed as mean transglutaminase activity level at 4.69 10^-7M in presence of 10 uM retinal relative to retinal alone; type: cell-based; parameters: scale not given: the % may be the effect or the level left
Homo sapiens [9] = species on record: Homo sapiens
Description: Inhibition of transglutaminase in human keratinocytes in presence of 10 uM retinal relative to retinal alone

Homo sapiens [10] = species on record: Homo sapiens; experiment: Inhibition of transglutaminase in human keratinocytes assessed as mean transglutaminase activity level at 4.22 10^-5M in presence of 10 uM retinal relative to retinal alone; type: cell-based; parameters: scale not given: the % may be the effect or the level left
Homo sapiens [11] = species on record: Homo sapiens; experiment: Inhibition of transglutaminase in human keratinocytes assessed as mean transglutaminase activity level at 1.14 10^-3M in presence of 10 uM retinal relative to retinal alone; type: cell-based; parameters: scale not given: the % may be the effect or the level left
Homo sapiens [12] = species on record: Homo sapiens; experiment: Inhibition of transglutaminase in human keratinocytes assessed as mean transglutaminase activity level at 3.29 10^-7M in presence of 10 uM retinal relative to retinal alone; type: cell-based; parameters: scale not given: the % may be the effect or the level left
Homo sapiens [13] = species on record: Homo sapiens; experiment: Inhibition of transglutaminase in human keratinocytes assessed as mean transglutaminase activity level at 1.4 10^-2M in presence of 10 uM retinal relative to retinal alone; type: cell-based; parameters: scale not given: the % may be the effect or the level left
Homo sapiens [14] = species on record: Homo sapiens; experiment: Inhibition of transglutaminase in human keratinocytes assessed as mean transglutaminase activity level at 8.2 10^-6M in presence of 10 uM retinal relative to retinal alone; type: cell-based; parameters: scale not given: the % may be the effect or the level left
Homo sapiens [15] = species on record: Homo sapiens; experiment: Inhibition of transglutaminase in human keratinocytes assessed as mean transglutaminase activity level at 1.65 10^-7M in presence of 10 uM retinal relative to retinal alone; type: cell-based; parameters: scale not given: the % may be the effect or the level left
Homo sapiens [16] = species on record: Homo sapiens; experiment: Inhibition of transglutaminase in human keratinocytes assessed as mean transglutaminase activity level at 4.8 10^-3M in presence of 10 uM retinal relative to retinal alone; type: cell-based; parameters: scale not given: the % may be the effect or the level left
Homo sapiens [17] = species on record: Homo sapiens; experiment: Inhibition of transglutaminase in human keratinocytes assessed as mean transglutaminase activity level at 1 10^-3M in presence of 10 uM retinal relative to retinal alone; type: cell-based; parameters: scale not given: the % may be the effect or the level left
Homo sapiens [18] = species on record: Homo sapiens; experiment: Inhibition of transglutaminase in human keratinocytes assessed as mean transglutaminase activity level at 1.23 10^-5M in presence of 10 uM retinal relative to retinal alone; type: cell-based; parameters: scale not given: the % may be the effect or the level left
Homo sapiens [19] = species on record: Homo sapiens; experiment: Inhibition of transglutaminase in human keratinocytes assessed as mean transglutaminase activity level at 4.1 10^-5M in presence of 10 uM retinal relative to retinal alone; type: cell-based; parameters: scale not given: the % may be the effect or the level left
Homo sapiens [20] = species on record: Homo sapiens; experiment: Inhibition of transglutaminase in human keratinocytes assessed as mean transglutaminase activity level at 3.73 10^-4M in presence of 10 uM retinal relative to retinal alone; type: cell-based; parameters: scale not given: the % may be the effect or the level left
Homo sapiens [21] = species on record: Homo sapiens; experiment: Inhibition of transglutaminase in human keratinocytes assessed as mean transglutaminase activity level at 1.1 10^-8M in presence of 10 uM retinal relative to retinal alone; type: cell-based; parameters: scale not given: the % may be the effect or the level left
Homo sapiens [22] = species on record: Homo sapiens; experiment: Inhibition of transglutaminase in human keratinocytes assessed as mean transglutaminase activity level at 4.3 10^-9M in presence of 10 uM retinal relative to retinal alone; type: cell-based; parameters: scale not given: the % may be the effect or the level left
Homo sapiens [23] = species on record: Homo sapiens; experiment: Inhibition of transglutaminase in human keratinocytes assessed as mean transglutaminase activity level at 2 10^-8M in presence of 10 uM retinal relative to retinal alone; type: cell-based; parameters: scale not given: the % may be the effect or the level left
[24] = biological target: T1, Cellular retinoic acid-binding protein 2 (Homo sapiens) (UniProt P29373); experiment: Inhibition of radioactive all-trans retinoic acid binding to CRABP2 (unknown origin) expressed in Escherichia coli BLR(DE3)pLys incubated for 1 hr by scintillation counting assay; details: concentration not given here
T1 sequence (whole entry): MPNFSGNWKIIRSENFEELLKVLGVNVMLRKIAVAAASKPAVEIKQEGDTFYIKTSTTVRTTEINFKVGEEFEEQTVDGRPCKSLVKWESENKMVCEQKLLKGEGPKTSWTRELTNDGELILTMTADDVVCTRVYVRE

Homo sapiens [25] = species on record: Homo sapiens; experiment: Inhibition of transglutaminase in human keratinocytes assessed as mean transglutaminase activity level at 5.0 10^-8M in presence of 10 uM retinal relative to retinal alone; type: cell-based; parameters: scale not given: the % may be the effect or the level left
Homo sapiens [26] = species on record: Homo sapiens; experiment: Inhibition of transglutaminase in human keratinocytes assessed as mean transglutaminase activity level at 1.2 10^-5M in presence of 10 uM retinal relative to retinal alone; type: cell-based; parameters: scale not given: the % may be the effect or the level left
Homo sapiens [27] = species on record: Homo sapiens; experiment: Inhibition of transglutaminase in human keratinocytes assessed as mean transglutaminase activity level at 3.1 10^-5M in presence of 10 uM retinal relative to retinal alone; type: cell-based; parameters: scale not given: the % may be the effect or the level left
Homo sapiens [28] = species on record: Homo sapiens; experiment: Inhibition of transglutaminase in human keratinocytes assessed as mean transglutaminase activity level at 3.65 10^-6M in presence of 10 uM retinal relative to retinal alone; type: cell-based; parameters: scale not given: the % may be the effect or the level left
Homo sapiens [29] = species on record: Homo sapiens; experiment: Inhibition of transglutaminase in human keratinocytes assessed as mean transglutaminase activity level at 1.29 10^-6M in presence of 10 uM retinal relative to retinal alone; type: cell-based; parameters: scale not given: the % may be the effect or the level left
Homo sapiens [30] = species on record: Homo sapiens; experiment: Inhibition of transglutaminase in human keratinocytes assessed as mean transglutaminase activity level at 1 10^-8M in presence of 10 uM retinal relative to retinal alone; type: cell-based; parameters: scale not given: the % may be the effect or the level left
Homo sapiens [31] = species on record: Homo sapiens; experiment: Inhibition of transglutaminase in human keratinocytes assessed as mean transglutaminase activity level at 5.1 10^-8M in presence of 10 uM retinal relative to retinal alone; type: cell-based; parameters: scale not given: the % may be the effect or the level left
Homo sapiens [32] = species on record: Homo sapiens; experiment: Inhibition of transglutaminase in human keratinocytes assessed as mean transglutaminase activity level at 1.23 10^-4M in presence of 10 uM retinal relative to retinal alone; type: cell-based; parameters: scale not given: the % may be the effect or the level left
Homo sapiens [33] = species on record: Homo sapiens; experiment: Inhibition of transglutaminase in human keratinocytes assessed as mean transglutaminase activity level at 2 10^-7M in presence of 10 uM retinal relative to retinal alone; type: cell-based; parameters: scale not given: the % may be the effect or the level left
Homo sapiens [34] = species on record: Homo sapiens; experiment: Inhibition of transglutaminase in human keratinocytes assessed as mean transglutaminase activity level at 9.1 10^-4M in presence of 10 uM retinal relative to retinal alone; type: cell-based; parameters: scale not given: the % may be the effect or the level left
Homo sapiens [35] = species on record: Homo sapiens; experiment: Inhibition of transglutaminase in human keratinocytes assessed as mean transglutaminase activity level at 1.6 10^-4M in presence of 10 uM retinal relative to retinal alone; type: cell-based; parameters: scale not given: the % may be the effect or the level left
Homo sapiens [36] = species on record: Homo sapiens; experiment: Inhibition of transglutaminase in human keratinocytes assessed as mean transglutaminase activity level at 1.79 10^-9M in presence of 10 uM retinal relative to retinal alone; type: cell-based; parameters: scale not given: the % may be the effect or the level left
Homo sapiens [37] = species on record: Homo sapiens; experiment: Inhibition of transglutaminase in human keratinocytes assessed as mean transglutaminase activity level at 1.98 10^-6M in presence of 10 uM retinal relative to retinal alone; type: cell-based; parameters: scale not given: the % may be the effect or the level left
Homo sapiens [38] = species on record: Homo sapiens; experiment: Inhibition of transglutaminase in human keratinocytes assessed as mean transglutaminase activity level at 6.58 10^-7M in presence of 10 uM retinal relative to retinal alone; type: cell-based; parameters: scale not given: the % may be the effect or the level left
Homo sapiens [39] = species on record: Homo sapiens; experiment: Inhibition of transglutaminase in human keratinocytes assessed as mean transglutaminase activity level at 5.33 10^-5M in presence of 10 uM retinal relative to retinal alone; type: cell-based; parameters: scale not given: the % may be the effect or the level left
Homo sapiens [40] = species on record: Homo sapiens; experiment: Inhibition of transglutaminase in human keratinocytes assessed as mean transglutaminase activity level at 4.39 10^-8M in presence of 10 uM retinal relative to retinal alone; type: cell-based; parameters: scale not given: the % may be the effect or the level left
Homo sapiens [41] = species on record: Homo sapiens; experiment: Inhibition of transglutaminase in human keratinocytes assessed as mean transglutaminase activity level at 8.78 10^-9M in presence of 10 uM retinal relative to retinal alone; type: cell-based; parameters: scale not given: the % may be the effect or the level left
Homo sapiens [42] = species on record: Homo sapiens; experiment: Inhibition of transglutaminase in human keratinocytes assessed as mean transglutaminase activity level at 2.19 10^-9M in presence of 10 uM retinal relative to retinal alone; type: cell-based; parameters: scale not given: the % may be the effect or the level left
Homo sapiens [43] = species on record: Homo sapiens; experiment: Inhibition of transglutaminase in human keratinocytes assessed as mean transglutaminase activity level at 5.93 10^-6M in presence of 10 uM retinal relative to retinal alone; type: cell-based; parameters: scale not given: the % may be the effect or the level left
Homo sapiens [44] = species on record: Homo sapiens; experiment: Inhibition of transglutaminase in human keratinocytes assessed as mean transglutaminase activity level at 1.78 10^-5M in presence of 10 uM retinal relative to retinal alone; type: cell-based; parameters: scale not given: the % may be the effect or the level left

O=C(Nc1ccc(Cl)cc1)Nc1ccc(Cl)c(Cl)c1
Activity (Homo sapiens [1]): 18.9%
Activity (Homo sapiens [2]): 3.8%
Activity (Homo sapiens [3]): 54.4%
Activity (Homo sapiens [4]): -0.3%
Activity (Homo sapiens [5]): 100%
Activity (Homo sapiens [6]): -3.2%
Activity (Homo sapiens [7]): 77.6%
Activity (Homo sapiens [8]): 15.9%
IC20 (Homo sapiens [9]): 6.18 ×10⁻⁷ M
Activity (Homo sapiens [10]): -11.2%
Activity (Homo sapiens [11]): 36.3%

COc1cc(C=O)ccc1O
Activity (Homo sapiens [12]): 93%
Activity (Homo sapiens [13]): 21.5%
Activity (Homo sapiens [14]): 109%
Activity (Homo sapiens [15]): 80%
Activity (Homo sapiens [16]): 93.8%
Activity (Homo sapiens [17]): 124%
Activity (Homo sapiens [18]): 82%
Activity (Homo sapiens [19]): 98%
IC20 (Homo sapiens [9]): 8.47 ×10⁻³ M
Activity (Homo sapiens [20]): 101%

CCCCCCC(O)CCCCCCCCCCC(=O)O (configuration not stated)
Activity (Homo sapiens [12]): 82%
Activity (Homo sapiens [14]): 97.6%
Activity (Homo sapiens [21]): 98%
Activity (Homo sapiens [15]): 90.2%
Activity (Homo sapiens [18]): -5.2%
Activity (Homo sapiens [19]): 32.4%
Activity (Homo sapiens [22]): 71%
Activity (Homo sapiens [23]): 118%
IC20 (Homo sapiens [9]): 1.45 ×10⁻⁵ M
inhibition [24]: > 50%
Activity (Homo sapiens [25]): 81%

CCCCCCCCCCCCCCCCC(O)C(=O)O (configuration not stated)
Activity (Homo sapiens [26]): 105%
Activity (Homo sapiens [27]): 96%
Activity (Homo sapiens [28]): 63%
Activity (Homo sapiens [29]): 80%
Activity (Homo sapiens [30]): 58%
Activity (Homo sapiens [31]): 64%
Activity (Homo sapiens [32]): 51%
Activity (Homo sapiens [33]): 142%
Activity (Homo sapiens [20]): 69.3%
Activity (Homo sapiens [34]): 46.6%

CCCCCCCC(=O)OC[C@H](COP(=O)([O-])OCC[N+](C)(C)C)OC(=O)CCCCCCC
Activity (Homo sapiens [35]): 58.1%
Activity (Homo sapiens [36]): 82%
Activity (Homo sapiens [37]): 110%
Activity (Homo sapiens [38]): 92.8%
Activity (Homo sapiens [39]): 95.4%
Activity (Homo sapiens [40]): 127%
Activity (Homo sapiens [41]): 119%
Activity (Homo sapiens [42]): 88.6%
Activity (Homo sapiens [43]): 129%
Activity (Homo sapiens [44]): 104%
